According to patent publication US8383619B2, “Pharmaceutical compounds” (Astex Therapeutics Limited, priority 2008, dated 2013):

Columns and labels:
Assay in all cases: Anti-proliferative assay (Oncodesign)
Format in all cases: cell-based
[1] = system: LB1319-MEL; conditions: LB1319-MEL (SKIN); read-out: IC50 (Concentration of test compound)
Description: (§1) The anti-proliferative activities of the parent compounds of the pro-drugs of the invention may be determined by measuring the ability of the compounds to inhibition of cell growth in a number of cell lines such as the human colon cancer cell line HCT116. Inhibition of cell growth is measured using the Alamar Blue assay (Nociari, M. M, Shalev, A., Benias, P., Russo, C. Journal of Immunological Methods 1998, 213, 157-167). The method is based on the ability of viable cells to reduce resazurin to its fluorescent product resorufin. For each proliferation assay cells are plated onto 96 well plates and allowed to recover for 16 hours prior to the addition of inhibitor compounds for a further 72 hours. At the end of the incubation period 10% (v/v) Alamar Blue is added and incubated for a further 6 hours prior to determination of fluorescent product at […]. In the case of the non-proliferating cell assay cells are maintained at confluence for 96 hour prior to the addition of inhibitor compounds for a further 72 hours. The number of viable cells is determined by Alamar Blue assay as before. Cell lines may be obtained from the ECACC (European Collection of cell Cultures).
(§2) The parent compound of the pro-drugs of Examples 1 to 25 i.e. (2,4-dihydroxy-5-isopropyl-phenyl)-[5-(4-methyl-piperazin-1-ylmethyl)-1,3-dihydro-isoindol-2-yl]-methanone, in the form of its L-lactate salt, was tested in anti-proliferative assays against one hundred cell lines by Oncodesign (Dijon, France). The IC50 values against each cell line are set out in the table below and the figures in the table refer to nanomolar concentrations. The compounds were tested up to a concentration of 10,000 nanomolar.

[2] = system: LB12-SCLC/OC2; conditions: LB12-SCLC/OC2 (LUNG); read-out: IC50 (Concentration of test compound)
Description: as §1, §2

[3] = system: KB; conditions: Homo sapiens; KB (HEAD AND NECK); read-out: IC50 (Concentration of test compound)
Description: as §1, §2

[4] = system: DLD-1; conditions: Homo sapiens; DLD-1 (COLON); read-out: IC50 (Concentration of test compound)
Description: as §1, §2

[5] = system: HCT 116; conditions: Homo sapiens; HCT 116 (COLON); read-out: IC50 (Concentration of test compound)
Description: as §1, §2

[6] = system: LB61-NSCLC; conditions: LB61-NSCLC (LUNG); read-out: IC50 (Concentration of test compound)
Description: as §1, §2

[7] = system: MDA-MB-435; conditions: Homo sapiens; MDA-MB-435 (BREAST); read-out: IC50 (Concentration of test compound)
Description: as §1, §2

[8] = system: Caov-3; conditions: Homo sapiens; Caov-3 (OVARY); read-out: IC50 (Concentration of test compound)
Description: as §1, §2

[9] = system: NCI-H82; conditions: Homo sapiens; NCI-H82 (LUNG); read-out: IC50 (Concentration of test compound)
Description: as §1, §2

[10] = system: NCI-H69; conditions: Homo sapiens; NCI-H69 (LUNG); read-out: IC50 (Concentration of test compound)
Description: as §1, §2

[11] = system: Calu-3; conditions: Homo sapiens; Calu-3 (LUNG); read-out: IC50 (Concentration of test compound)
Description: as §1, §2

[12] = system: MC90; conditions: MC90 (BLOOD); read-out: IC50 (Concentration of test compound)
Description: as §1, §2

[13] = system: A-427; conditions: Homo sapiens; A-427 (LUNG); read-out: IC50 (Concentration of test compound)
Description: as §1, §2

[14] = system: J82; conditions: Homo sapiens; J82 (URINARY BLADDER); read-out: IC50 (Concentration of test compound)
Description: as §1, §2

[15] = system: Ramos; conditions: Homo sapiens; Ramos (BLOOD); read-out: IC50 (Concentration of test compound)
Description: as §1, §2

[16] = system: CAMA-1; conditions: Homo sapiens; CAMA-1 (BREAST); read-out: IC50 (Concentration of test compound)
Description: as §1, §2

[17] = system: NCI-H1299; conditions: Homo sapiens; NCI-H1299 (LUNG); read-out: IC50 (Concentration of test compound)
Description: as §1, §2

[18] = system: MDA-MB-435S; conditions: Homo sapiens; MDA-MB-435S (BREAST); read-out: IC50 (Concentration of test compound)
Description: as §1, §2

[19] = system: NAMALWA; conditions: NAMALWA (BLOOD); read-out: IC50 (Concentration of test compound)
Description: as §1, §2

[20] = system: K-562/Gleevec; conditions: Homo sapiens, K562; K-562/Gleevec (BLOOD); read-out: IC50 (Concentration of test compound)
Description: as §1, §2

[21] = system: HCC1954; conditions: Homo sapiens; HCC1954 (BREAST); read-out: IC50 (Concentration of test compound)
Description: as §1, §2

[22] = system: BB74-MEL; conditions: BB74-MEL (SKIN); read-out: IC50 (Concentration of test compound)
Description: as §1, §2

[23] = system: FaDu; conditions: Homo sapiens; FaDu (HEAD AND NECK); read-out: IC50 (Concentration of test compound)
Description: as §1, §2

[24] = system: LB771-HNSCC; conditions: LB771-HNSCC (HEAD AND NECK); read-out: IC50 (Concentration of test compound)
Description: as §1, §2

[25] = system: LB996-RCC; conditions: LB996-RCC (KIDNEY); read-out: IC50 (Concentration of test compound)
Description: as §1, §2

[26] = system: EHEB; conditions: EHEB (BLOOD); read-out: IC50 (Concentration of test compound)
Description: as §1, §2

Which IC50 [1] does the source give for `CC(C)c1cc(C(=O)N2Cc3ccc(CN4CCN(C)CC4)cc3C2)c(O)cc1O` [(2,4-dihydroxy-5-isopropyl-phenyl)-[5-(4-methyl-piperazin-1-ylmethyl)-1,3-dihydro-isoindol-2-yl]-methanone] here?
Its IC50 is 0.035 µM.

What about the IC50 [2] of the same molecule?
Its IC50 is 0.052 µM.

What about the IC50 [3] of the same molecule?
The IC50 was 0.048 µM.

And the IC50 [4]?
Its IC50 is 0.056 µM.

What about the IC50 [5] of the same molecule?
The IC50 was 0.038 µM.

And the IC50 [6]?
Its IC50 is over 10 µM.

And the IC50 [7]?
The IC50 was 0.122 µM.

What about the IC50 [8] of the same molecule?
The IC50 was 0.094 µM.

What about the IC50 [9] of the same molecule?
The IC50 was over 10 µM.

And the IC50 [10]?
The IC50 was 0.162 µM.

And the IC50 [11]?
The IC50 was over 10 µM.

And the IC50 [12]?
Its IC50 is 0.093 µM.

What about the IC50 [13] of the same molecule?
The IC50 was 0.13 µM.

What about the IC50 [14] of the same molecule?
The IC50 was 0.02 µM.

What about the IC50 [15] of the same molecule?
The IC50 was 0.046 µM.

And the IC50 [16]?
Its IC50 is 0.022 µM.

What about the IC50 [17] of the same molecule?
Its IC50 is 0.587 µM.

And the IC50 [18]?
The IC50 was 0.026 µM.

And the IC50 [19]?
Its IC50 is 0.093 µM.

What about the IC50 [20] of the same molecule?
The IC50 was 0.175 µM.

And the IC50 [21]?
Its IC50 is 0.028 µM.

And the IC50 [22]?
Its IC50 is 0.162 µM.

What about the IC50 [23] of the same molecule?
Its IC50 is 0.029 µM.

And the IC50 [24]?
The IC50 was 0.391 µM.

What about the IC50 [25] of the same molecule?
Its IC50 is 0.158 µM.

What about the IC50 [26] of the same molecule?
The IC50 was over 10 µM.
